Laboratory results as given in ChEMBL document CHEMBL6103647, “Analgesic Grayanane-Derived Diterpenoids from the Flowers of Rhododendron molle” (J Nat Prod, 2025).

Tests used:
Mus musculus [1] = assay: Analgesic activity against acetic acid-induced ip dosed Kunming writhing mouse model assessed as effective dose pre-incubated for 15 mins followed by acetic acid addition and measured after 15 mins; assay type: functional; conditions: 0.25 h
[2] = Therapeutic index, ratio of LD50 for toxicity in ip dosed Kunming mouse assessed as lethal dose to ED50 for analgesic activity against acetic acid-induced Kunming writhing mouse model assessed as effective dose; assay type: organism-based; conditions: in vivo, read-out: TI
Mus musculus [3] = assay: Analgesic activity against acetic acid-induced Kunming writhing mouse model assessed as inhibition of writhing at 5 mg/kg, ip pre-incubated for 15 mins followed by acetic acid addition and measured after 15 mins relative to control; assay type: functional; conditions: 0.25 h
Mus musculus [4] = assay: Analgesic activity against acetic acid-induced Kunming writhing mouse model assessed as inhibition of writhing at 1 mg/kg, ip pre-incubated for 15 mins followed by acetic acid addition and measured after 15 mins relative to control; assay type: functional; conditions: 0.25 h
Mus musculus [5] = assay: Analgesic activity against acetic acid-induced Kunming writhing mouse model assessed as inhibition of writhing at 0.2 mg/kg, ip pre-incubated for 15 mins followed by acetic acid addition and measured after 15 mins relative to control; assay type: functional; conditions: 0.25 h
[6] = Toxicity in Kunming mouse at 5 mg/kg, ip administered for 15 mins; assay type: organism-based; conditions: in vivo, 0.25 h
[7] = Toxicity in ip dosed Kunming mouse assessed as lethal dose; assay type: organism-based; conditions: in vivo

| Structure (SMILES) | inhibition in vivo at 5 mg/kg (Mus musculus [3]) [%] | inhibition in vivo at 1 mg/kg (Mus musculus [4]) [%] | inhibition in vivo at 0.2 mg/kg (Mus musculus [5]) [%] | other results |
| --- | --- | --- | --- | --- |
| CC1(C)[C@@H](O)[C@H](O)[C@H]2[C@](C)(O)[C@@H]3CC[C@@H]4[C@@H](O)[C@@]3(C[C@@H](O)[C@@]21O)C[C@@]4(C)O |  |  |  | ED50 (Mus musculus [1]): 0.073 mg/kg; selectivity ratio [2]: 24.5 |
| CC1(C)[C@@H](O)[C@H](OC(=O)c2ccco2)[C@H]2[C@](C)(O)[C@@H]3CC[C@@H]4[C@@H](O)[C@@]3(C[C@@H](O)[C@@]21O)C[C@@]4(C)O | 74.1 | 50 | 71.5 |  |
| CC1=C2CC[C@@H]3[C@@H](O)[C@@]2(C[C@H]2O[C@@H](c4ccc(O)cc4)O[C@@]24C1[C@@H](O)[C@H](O)C4(C)C)C[C@@]3(C)O (stereo not given in full) | 74.1 | 50 |  |  |
| CC1(C)[C@@H](O)[C@H](OC(=O)c2cccnc2)[C@H]2[C@](C)(O)[C@@H]3CC[C@@H]4[C@@H](O)[C@@]3(C[C@@H](O)[C@@]21O)C[C@@]4(C)O |  | 50 |  | Activity [6]: Toxic |
| CC1(C)[C@@H](O)[C@H](OC(=O)[C@@]2(O)C[C@@H](O)[C@H](O)[C@H](OC(=O)/C=C/c3ccc(O)cc3)C2)[C@H]2[C@](C)(O)[C@@H]3CC[C@@H]4[C@@H](O)[C@@]3(C[C@@H](O)[C@@]21O)C[C@@]4(C)O | 74.1 | 50 | 77.2 | ED50 (Mus musculus [1]): 0.074 mg/kg; LD50 [7]: 131 mg/kg; selectivity ratio [2]: 1770 |
| CC1(C)[C@@H](O)[C@@H]2O[C@@H]3[C@H]4CC[C@H]5[C@@](C)(O)[C@@H]6[C@@H](O[C@@H]7[C@H]8CC[C@H]9[C@@](C)(O)[C@H]2[C@]1(O)[C@H](O)C[C@@]79C[C@@]8(C)O)[C@H](O)C(C)(C)[C@@]6(O)[C@H](O)C[C@@]35C[C@@]4(C)O | 74.1 | 50 |  |  |
| CC(=O)O[C@@H]1C[C@]23C[C@@](C)(O)[C@@H]4CC[C@H]2[C@@](C)(O)[C@@H]2[C@@H](O[C@@H]5[C@H]6CC[C@H]7[C@@](C)(O)[C@@H]8[C@@H](O[C@H]43)[C@H](O)C(C)(C)[C@@]8(O)[C@H](OC(C)=O)C[C@@]57C[C@@]6(C)O)[C@H](O)C(C)(C)[C@@]12O | 74.1 |  |  |  |
| CC1=C2CC[C@@H]3[C@@H](O)[C@@]2(C[C@@H](O)[C@@]2(O)[C@H]1[C@@H](Cl)[C@H](O)C2(C)C)C[C@@]3(C)O |  | 50 |  |  |
| CN1CC[C@]23c4c5ccc(O)c4O[C@H]2[C@@H](O)C=C[C@H]3[C@H]1C5 [MORPHINE] |  |  | 39.4 |  |
